In article PMC3076582 (European Journal of Clinical Pharmacology, 2010):
Read-outs that look alike come from different tables or passages of the source.

Columns and labels:
[1] = cited from earlier work
[2] = for Unstandardised coefficient B, oxycodone serum concentration / Unstandardised coefficient B, ratio noroxycodone/oxycodone / Unstandardised coefficient B, ratio oxymorphone/oxycodone: log 10 form
[3] = format: in vivo, human; conditions: for Dose-corrected serum concentration, 25th percentile / Dose-corrected serum concentration, 75th percentile / Dose-corrected serum concentration, mean / Dose-corrected serum concentration, median / Dose-corrected serum concentration, minimum to maximum / Uncorrected serum concentration, 25th percentile / Uncorrected serum concentration, 75th percentile / Uncorrected serum concentration, mean / Uncorrected serum concentration, minimum to maximum / Uncorrected serum concentration, median / Ratio metabolite/oxycodone serum concentration, 25th percentile / Ratio metabolite/oxycodone serum concentration, 75th percentile / Ratio metabolite/oxycodone serum concentration, mean / Ratio metabolite/oxycodone serum concentration, median / Ratio metabolite/oxycodone serum concentration, minimum to maximum: hospitalised patients; for Uncorrected serum concentration, median: oral oxycodone, trough sample; for Serum concentration, range / Serum concentration, median: partly different from Table 3; for Ratio metabolite/oxycodone serum concentration, 25th percentile / Ratio metabolite/oxycodone serum concentration, 75th percentile / Ratio metabolite/oxycodone serum concentration, mean / Ratio metabolite/oxycodone serum concentration, median / Ratio metabolite/oxycodone serum concentration, minimum to maximum: uncorrected serum concentrations
[4] = cited from earlier work; remark: listed apart in the source
CYP2D6 = conditions: healthy volunteers; cited from earlier work
[5] = cited from earlier work; remark: listed apart in the source
[6] = Mann-Whitney U test; 35 users
CYP3A4 = conditions: cited from earlier work
[7] = factor: CYP3A4 inducer (yes = 1)
[8] = factor: CYP3A4 inhibitor (yes = 1)
[9] = factor: sex (men = 1, women = 0)
[10] = factor: time from last oxycodone dose to blood sample

SMILES | 95% CI for the uncorrected mean serum concentration [3] [nM] | Dose-corrected serum concentration, 25th percentile [3] | Dose-corrected serum concentration, 75th percentile [3] | Dose-corrected serum concentration, mean [3] | Dose-corrected serum concentration, median [3] | Dose-corrected serum concentration, minimum to maximum [3] | Uncorrected serum concentration, 25th percentile [3] [nM] | Uncorrected serum concentration, 75th percentile [3] [nM] | Uncorrected serum concentration, mean [3] [nM] | Uncorrected serum concentration, minimum to maximum [3] | Uncorrected serum concentration, median [3] [nM] | Serum concentration, range [3] | AUC after blocking the CYP2D6 metabolic pathways of oxycodone with quinidine (CYP2D6) | Serum concentration, users versus non-users of CYP2D6 inhibitors [6] | Serum concentration, median [3] [nM] | 95% CI for the mean ratio metabolite/oxycodone [3] [nM] | Ratio metabolite/oxycodone serum concentration, 25th percentile [3] | Ratio metabolite/oxycodone serum concentration, 75th percentile [3] | Ratio metabolite/oxycodone serum concentration, mean [3] | Ratio metabolite/oxycodone serum concentration, median [3] | other results
CN1CC[C@]23c4c5ccc(O)c4O[C@H]2[C@@H](O)C=C[C@H]3[C@H]1C5 [morphine] | – | – | – | – | – | – | – | – | – | – | – | – | – | – | – | – | – | – | – | – | Additional morphine needed by men compared with women for pain relief [1]: 30–40%
COc1ccc2c3c1O[C@H]1C(=O)CC[C@@]4(O)[C@@H](C2)N(C)CC[C@]314 [Oxycodone, oxycodone, reference compound] | 139 to 183 | 90 nM × 100 mg 24 h^−1/dose 24 h^−1 | 225 nM × 100 mg 24 h^−1/dose 24 h^−1 | 186 nM × 100 mg 24 h^−1/dose 24 h^−1 | 144 nM × 100 mg 24 h^−1/dose 24 h^−1 | 0–1,294 nM × 100 mg 24 h^−1/dose 24 h^−1 | 43 | 201 | 161 | 0–1,890 nM | 97 | 0 to 1,890 nM | increased | did not differ | – | – | – | – | – | – | Predicted higher oxycodone serum concentration in men than in women ([2]; calculated from the regression analysis): about 30%; Unstandardised coefficient B, oxycodone serum concentration [2, 7]: −0.786; Unstandardised coefficient B, oxycodone serum concentration [2, 8]: 0.204; Unstandardised coefficient B, oxycodone serum concentration ([2]; factor: oxycodone total daily dose, n = 433, R^2 = 0.35): 0.002; Unstandardised coefficient B, oxycodone serum concentration [2, 9]: 0.113; Unstandardised coefficient B, oxycodone serum concentration [2, 10]: −0.027; Predicted higher oxycodone serum concentration in users of CYP3A4 inhibitors ([2]; versus non-users): 60%; Predicted lower oxycodone serum concentration in users of CYP3A4 inducer drugs ([2]; versus those without CYP3A4 inducer drug): 84%; Plasma concentrations in elderly versus younger patients [4]: may have higher; Oral bioavailability [5]: 60–87%
O=C1CC[C@@]2(O)[C@H]3Cc4ccc(O)c5c4[C@@]2(CCN3)[C@H]1O5 [Noroxymorphone, noroxymorphone] | – | 18 nM × 100 mg 24 h^−1/dose 24 h^−1 | 44 nM × 100 mg 24 h^−1/dose 24 h^−1 | 34 nM × 100 mg 24 h^−1/dose 24 h^−1 | 29 nM × 100 mg 24 h^−1/dose 24 h^−1 | 0–360 nM × 100 mg 24 h^−1/dose 24 h^−1 | 8 | 39 | 30 | 0 to 509 nM | 17 | 0 to 509 nM | – | – | 17 | – | – | – | – | – | –
COc1ccc2c3c1O[C@H]1C(=O)CC[C@@]4(O)[C@@H](C2)NCC[C@]314 [Noroxycodone, noroxycodone] | 174 to 245 | 103 nM × 100 mg 24 h^−1/dose 24 h^−1 | 261 nM × 100 mg 24 h^−1/dose 24 h^−1 | 212 nM × 100 mg 24 h^−1/dose 24 h^−1 | 161 nM × 100 mg 24 h^−1/dose 24 h^−1 | 0–3,032 nM × 100 mg 24 h^−1/dose 24 h^−1 | 44 | 211 | 209 | 0–3,571 nM | 101 | 0 to 4,858 nM | increased | – | – | 1.4 to 1.8 | 0.7 | 1.9 | 1.6 | 1.1 | Unstandardised coefficient B, ratio noroxycodone/oxycodone ([2]; factor: BMI): −0.009; Unstandardised coefficient B, ratio noroxycodone/oxycodone [2, 7]: 0.602; Unstandardised coefficient B, ratio noroxycodone/oxycodone [2, 8]: −0.294; Unstandardised coefficient B, ratio noroxycodone/oxycodone ([2]; factor: albumin): 0.006; Unstandardised coefficient B, ratio noroxycodone/oxycodone ([2]; factor: glomerular filtration rate): −0.001; Unstandardised coefficient B, ratio noroxycodone/oxycodone ([2]; factor: oxycodone total daily dose, n = 396, R^2 = 0.19): 0.001; Unstandardised coefficient B, ratio noroxycodone/oxycodone [2, 9]: −0.110; Unstandardised coefficient B, ratio noroxycodone/oxycodone ([2]; factor: systemic steroids (yes = 1)): −0.070; Unstandardised coefficient B, ratio noroxycodone/oxycodone [2, 10]: 0.012; Predicted higher noroxycodone/oxycodone ratio in users of CYP3A4 inducers ([2]; human, in vivo): about 4 times; Predicted lower noroxycodone/oxycodone ratio in users of systemic steroids ([2]; human, in vivo): 15%; Ratio metabolite/oxycodone serum concentration, minimum to maximum [3]: 0.1–24.4; Cmax after blocking the CYP3A4 metabolic pathway with ketoconazole (CYP3A4): decreased
CN1CC[C@]23c4c5ccc(O)c4O[C@H]2C(=O)CC[C@@]3(O)[C@H]1C5 [Oxymorphone, oxymorphone] | 2.3 to 3.0 | 1.2 nM × 100 mg 24 h^−1/dose 24 h^−1 | 4.2 nM × 100 mg 24 h^−1/dose 24 h^−1 | 3.4 nM × 100 mg 24 h^−1/dose 24 h^−1 | 2.2 nM × 100 mg 24 h^−1/dose 24 h^−1 | 0–34 nM × 100 mg 24 h^−1/dose 24 h^−1 | 0.7 | 3.2 | 2.6 | 0 to 25 nM | 1.5 | 0 to 27 nM | decreased | did not differ | 1.5 | 0.020 to 0.025 | 0.01 | 0.03 | 0.02 | 0.02 | Unstandardised coefficient B, ratio oxymorphone/oxycodone [2, 7]: 0.607; Unstandardised coefficient B, ratio oxymorphone/oxycodone ([2]; factor: number of medications (excluding opioids) taken in the last 24 h): −0.024; Unstandardised coefficient B, ratio oxymorphone/oxycodone ([2]; factor: oxycodone total daily dose, n = 438, R^2 = 0.05): −0.0004; Ratio metabolite/oxycodone serum concentration, minimum to maximum [3]: 0.00032–0.21; Concentrations in patients with impaired hepatic function [4]: lower; AUC after blocking the CYP3A4 metabolic pathway with ketoconazole (CYP3A4): increased
